Laboratory results from patent US10485772B2, “Compositions for modulating cancer stem cells and uses therefor” (University of Canberra, priority 2014, dated 2019).

System: CD44^high/CD24^low CSC-like subpopulation of PMA-stimulated MCF-7 cells (MCF-IM model)
Assay: FACS analysis of CD44high/CD24low CSC-like subpopulation in MCF-IM model
Format: cell-based, human
Conditions: MCF-IM model; for CD44 high CD24 low-CSC-like subpopulation by FACS: bisindolylmaleimide-I 100 nm and 1 μM prior to PMA for 60 hrs
Protocol: Cells from each well/flask were harvested by means of trypsin treatment followed by two washes with PBS. Washed cells then re-suspended in an antibody cocktail consisting anti-CD44-APC, anti-CD24-PE antibodies (details in Table 5) and Hoechst 33258 dye (final dilution of 1:1000) (Invitrogen, Carlsbad, Calif.) in 1% FCS-PBS solution. Cells re-suspended in antibody cocktail were incubated for 20 minutes at 4° C. Cells were next washed twice with PBS and re-suspended in 1% FCS-PBS solution (volume based on cell number) and kept on ice until analyzed by FACS. Forward scatter (FSC) and side scatter parameters were selected with FITC fluorochrome excited by 488 nm argonion laser, PE fluorochrome excited by 488 nm and Hoechst fluorochrome excited by 350 nm helium-cadmium UV laser.
Flow Cytometry data was produced using either BD FACS LSR Flow Cytometer (Becton Dickinson Biosciences) or BD FACS Aria™ II Flow Cytometer (Becton Dickinson Biosciences) and analyzed using the data acquisition software CellQuest Pro (Becton Dickinson Biosciences) and FlowJo (Tree Star Inc., Ashland, Oreg.) software at the MCRF facility, JCSMR, ANU, Canberra, Australia. Single colour controls were used to set compensation parameters. Isotype controls were used for all corresponding primary antibodies in each experiment.
The FACS gating strategy used in this thesis is adopted and modified from the pioneer breast cancer stem cell publications (Al-Hajj et al., 2003) which sorted cells based on the CD44^high and CD24^low expression. […] To confirm that anti-CD44-APC and anti-CD24-PE antibodies were specific, isotype control antibodies were used. The isotype (negative controls) used for anti-CD24-PE was PE Mouse-Anti-human IgG2aK and for anti-CD44-APC was APC-Mouse-Anti-human IgG2bK. First, all the cells were stained with Hoechst 33258 to monitor cell viability. In addition cells were stained with varying concentrations of either APC or PE isotypes controls.
The adherent human mammary adenocarcinoma MCF-7 and MDA-MB-231 cells were cultured in low glucose DMEM (Gibco) and both supplemented with 10% FCS, 2 mM L-glutamine and 0.1% PSN antibiotics. Cells were stimulated with 0.65 ng/ml of phorbol 12-myristate 13-acetate (PMA) (Sigma-Aldrich) or 20 ng/ml of TGF-β (R&D systems) for the times indicated. For Bisindolylmaleimide-I (Calbiochem) or PKC-θ peptide inhibitor (Calbiochem) studies, cells were pre-treated with 1 μM or 30 μM of inhibitor respectively for 1 h prior to stimulation in MCF-7 cells. In case of MDA-MB-231, cells were treated with 4 μM or 30 μM Bisindolylmaleimide-I or PKC-θ peptide inhibitor respectively.
To separate CSC from non-CSC (NCSC), florescence activated cell sorting (FACS) was performed on single-cell suspensions that were stained with anti-CD44-APC (559942, BD Biosciences) and anti-CD24-PE antibodies (555428, BD Biosciences) along with Hoechst 33258 to monitor cell viability. As used throughout this work, CSC are defined by minority CD44^high/CD24^low, whereas NCSC are defined by rest of the cell populations.
The adherent human mammary adenocarcinoma cell lines MCF-7 were cultured in low glucose DMEM (Gibco) and supplemented with 10% FCS, 2 mM L-glutamine, and 0.1% PSN antibiotics. Cells were stimulated with 0.65 ng/ml of phorbol 12-myristate 13-acetate (PMA) (Sigma-Aldrich) for 60 hours. FACS was performed on single-cell suspensions stained with anti-CD44-APC (559942, BD Biosciences) and anti-CD24-PE antibodies (555428, BD Biosciences), along with Hoechst 33258 (561908, BD Biosciences) to monitor cell viability as previously detailed (Zafar et al., Chromatinized PKC-theta directly regulates inducible genes in epithelial to mesenchymal transition and breast cancer stem cells. Molecular and Cellular Biology, 2014, 34:16 2961-2980). […]

CN(C)CCCn1cc(C2=C(c3c[nH]c4ccccc34)C(=O)NC2=O)c2ccccc21 [bisindolylmaleimide-I]
CD44 high CD24 low-CSC-like subpopulation by FACS: only very high concentration of bisindolylmaleimide-I but not Go 6976 inhibits CD44 high CD24 low-CSC-like subpopulation
CD44 high CD24 low-CSC-like subpopulation by FACS (listed as Broad spectrum PKC pathway inhibitor): inhibition of EMT and CSC formation

Cn1c2ccccc2c2c3c(c4c5ccccc5n(CCC#N)c4c21)CNC3=O [Go6976]
CD44 high CD24 low-CSC-like subpopulation (CSC formation) by FACS (Go6976 1 μM prior to PMA for 60 hrs): did not prevent PMA-induced EMT-like morphological changes or CSC formation
